Reference: article PMC12028158, “Synthesis and In Vitro Evaluation of the Anticancer Effect of Novel Phosphonium Vindoline Derivatives” (International Journal of Molecular Sciences, 2025)
Where two headings read alike, the source gives them in different places.

Assays:
Type in all cases: cell-based
SF-295 = test: NCI60 five-dose screen; conditions: Homo sapiens
OVCAR-3 = test: NCI60 five-dose screen; conditions: Homo sapiens
EKVX [1] = test: NCI60 five-dose screen; conditions: Homo sapiens
U251 [2] = test: NCI60 five-dose screen; conditions: Homo sapiens
A549/ATCC = test: NCI60 five-dose screen; conditions: Homo sapiens
MDA-MB-435 = test: NCI60 five-dose screen; conditions: Homo sapiens
HS 578T = test: NCI60 one-dose screen; conditions: Homo sapiens, read-out: Growth percent
SF-268 = test: NCI60 one-dose screen; conditions: Homo sapiens
HOP-92 [3] = test: NCI60 one-dose screen; conditions: Homo sapiens
786-0 = test: NCI60 one-dose screen; conditions: Homo sapiens
A498 [4] = test: NCI60 one-dose screen; conditions: Homo sapiens
A498 [5] = test: NCI60 five-dose screen; conditions: Homo sapiens
HT29 [6] = test: NCI60 five-dose screen; conditions: Homo sapiens, HT-29
SN12C = test: NCI60 one-dose screen; conditions: Homo sapiens, read-out: Growth percent
PC-3 [7] = test: NCI60 five-dose screen; conditions: Homo sapiens
TK-10 = test: NCI60 five-dose screen; conditions: Homo sapiens
SF-539 = test: NCI60 one-dose screen; conditions: Homo sapiens
NCI/ADR-RES = test: NCI60 five-dose screen; conditions: Homo sapiens
U251 [8] = test: NCI60 one-dose screen; conditions: Homo sapiens
NCI-H226 = test: NCI60 one-dose screen; conditions: Homo sapiens
MALME-3M = test: NCI60 one-dose screen; conditions: Homo sapiens, read-out: Growth percent
UACC-62 [9] = test: NCI60 five-dose screen; conditions: Homo sapiens
ACHN = test: NCI60 one-dose screen; conditions: Homo sapiens, read-out: Growth percent
SK-OV-3 [10] = test: NCI60 one-dose screen; conditions: Homo sapiens
PC-3 [11] = test: NCI60 one-dose screen; conditions: Homo sapiens
MOLT-4 = test: NCI60 one-dose screen; conditions: Homo sapiens
RPMI-8226 = test: NCI60 one-dose screen; conditions: Homo sapiens
OVCAR-8 = test: NCI60 one-dose screen; conditions: Homo sapiens
HOP-92 [12] = test: NCI60 five-dose screen; conditions: Homo sapiens
SK-MEL-2 = test: NCI60 one-dose screen; conditions: Homo sapiens
K-562 [13] = test: NCI60 five-dose screen; conditions: Homo sapiens, K562
UACC-62 [14] = test: NCI60 one-dose screen; conditions: Homo sapiens
HOP-62 = test: NCI60 five-dose screen; conditions: Homo sapiens
HL-60(TB) = test: NCI60 five-dose screen; conditions: Homo sapiens
OVCAR-4 = test: NCI60 five-dose screen; conditions: Homo sapiens
Renal Cancer panel = test: NCI60 five-dose screen, panel mean; conditions: Homo sapiens, read-out: GI50 Mean
SK-MEL-28 = test: NCI60 one-dose screen; conditions: Homo sapiens
COLO 205 = test: NCI60 five-dose screen; conditions: Homo sapiens
DU-145 = test: NCI60 one-dose screen; conditions: Homo sapiens
HT29 [15] = test: NCI60 one-dose screen; conditions: Homo sapiens
K-562 [16] = test: NCI60 one-dose screen; conditions: Homo sapiens
SK-OV-3 [17] = test: NCI60 five-dose screen; conditions: Homo sapiens
NCI-H460 = test: NCI60 five-dose screen; conditions: Homo sapiens
SR = test: NCI60 one-dose screen; conditions: Homo sapiens, read-out: Growth percent
KM12 = test: NCI60 one-dose screen; conditions: Homo sapiens
BT-549 = test: NCI60 five-dose screen; conditions: Homo sapiens
EKVX [18] = test: NCI60 one-dose screen; conditions: Homo sapiens, read-out: Growth percent

In the case of `CC[C@]12C=CCN3CC[C@@]4(c5ccc(OC)cc5N(C)[C@H]4[C@@](O)(C(=O)OC)[C@@H]1OC(=O)CCCC[P+](c1ccc(OC)cc1)(c1ccc(OC)cc1)c1ccc(OC)cc1)[C@@H]32` [10b], the GI50 (SF-295; SF-295) is reported as 1.97 µM, the GI50 (OVCAR-3; OVCAR-3) is reported as 0.634 µM and the GI50 (EKVX [1]) is reported as 0.185 µM. The GI50 (U251 [2]; U-251) was 0.392 µM, the GI50 (A549/ATCC; A549) was 1.65 µM and the GI50 (MDA-MB-435; MDA-MB-435) was 0.521 µM. The activity at 10 µM (HS 578T; Hs-578T) was -67.5%, the activity at 10 µM (SF-268; SF-268, read-out: Growth percent) was -38.1% and the activity at 10 µM (HOP-92 [3]; HOP-92, read-out: Growth percent) was -74.5%. For the same molecule, the activity at 10 µM (786-0; 786-0, read-out: Growth percent) was -92.9%, the activity at 10 µM (A498 [4]; A498, read-out: Growth percent) was -54.7% and the GI50 (A498 [5]; A498) was 2930 nM. The GI50 (HT29 [6]) was 0.511 µM, the activity at 10 µM (SN12C) was -95.3% and the GI50 (PC-3 [7]; PC-3) was 0.562 µM. The GI50 (TK-10; TK-10) was 1.67 µM, the activity at 10 µM (SF-539; SF-539, read-out: Growth percent) was -97.5% and the GI50 (NCI/ADR-RES) was 20.5 µM. For the same molecule, the activity at 10 µM (U251 [8]; U-251, read-out: Growth percent) was -95.9%, the activity at 10 µM (NCI-H226; NCI-H226, read-out: Growth percent) was -63.6% and the activity at 10 µM (MALME-3M; Malme-3M) was -97.2%. It also gave a GI50 (UACC-62 [9]; UACC-62) of 0.963 µM, an activity at 10 µM (ACHN) of -49.2% and an activity at 10 µM (SK-OV-3 [10]; SK-OV-3, read-out: Growth percent) of -82.5%. The activity at 10 µM (PC-3 [11]; PC-3, read-out: Growth percent) was -37.2%, the activity at 10 µM (MOLT-4; MOLT-4, read-out: Growth percent) was -26.2% and the activity at 10 µM (RPMI-8226; RPMI-8226, read-out: Growth percent) was -68.8%. For the same molecule, the activity at 10 µM (OVCAR-8; OVCAR-8, read-out: Growth percent) was -90.2%, the GI50 (HOP-92 [12]; HOP-92) was 0.52 µM and the activity at 10 µM (SK-MEL-2; SK-MEL-2, read-out: Growth percent) was -91.4%. The GI50 (K-562 [13]) was 0.675 µM, the activity at 10 µM (UACC-62 [14]; UACC-62, read-out: Growth percent) was -95.2% and the GI50 (HOP-62; HOP-62) was 2.42 µM. For the same molecule, the GI50 (HL-60(TB); HL-60) was 234 nM, the GI50 (OVCAR-4; OVCAR-4) was 1.57 µM and the GI50 (Renal Cancer panel) was 4.34 µM. For the same molecule, the activity at 10 µM (SK-MEL-28; SK-MEL-28, read-out: Growth percent) was -96.8%, the GI50 (COLO 205; COLO 205) was 214 nM and the activity at 10 µM (DU-145; DU-145, read-out: Growth percent) was -58.2%. The activity at 10 µM (HT29 [15]; HT-29, read-out: Growth percent) was -63.1%, the activity at 10 µM (K-562 [16]; K562, read-out: Growth percent) was 1.01% and the GI50 (SK-OV-3 [17]; SK-OV-3) was 1.4 µM. It also gave a GI50 (NCI-H460; NCI-H460) of 1.15 µM, an activity at 10 µM (SR) of 23.2% and an activity at 10 µM (KM12; KM12, read-out: Growth percent) of -68.8%. The GI50 (BT-549; BT-549) was 1.25 µM and the activity at 10 µM (EKVX [18]) was -59.7%.
With `CC[C@]12C=CCN3CC[C@@]4(c5ccc(OC)cc5N(C)[C@H]4[C@@](O)(C(=O)OC)[C@@H]1OC(=O)CCCC[P+](c1ccc(F)cc1)(c1ccc(F)cc1)c1ccc(F)cc1)[C@@H]32` [10c] the GI50 (SF-295; SF-295, CNS Cancer, read-out: GI50) was 30.6 µM, the GI50 (OVCAR-3; OVCAR-3, Ovarian Cancer, read-out: GI50) was 9.3 µM and the GI50 (EKVX [1]; Non-small Cell Lung Cancer, read-out: GI50) was 21 µM. It also gave a GI50 (U251 [2]; U-251, U251, CNS Cancer, read-out: GI50) of 10.7 µM, a GI50 (A549/ATCC; A549/ATCC, Non-small Cell Lung Cancer, read-out: GI50) of 33.8 µM and a GI50 (MDA-MB-435; MDA-MB-435, Melanoma, read-out: GI50) of 12.9 µM. The activity at 10 µM (HS 578T; HS 578T, 10 μM, one-dose) was -2.23%, the activity at 10 µM (SF-268; SF-268, 10 μM, one-dose, read-out: Growth percent) was 28.1% and the activity at 10 µM (HOP-92 [3]; HOP-92, 10 μM, one-dose, read-out: Growth percent) was -12.2%. The activity at 10 µM (786-0; 786-0, 10 μM, one-dose, read-out: Growth percent) was 87%, the activity at 10 µM (A498 [4]; A498, 10 μM, one-dose, read-out: Growth percent) was 99.2% and the GI50 (A498 [5]; A498, Renal Cancer, read-out: GI50) was greater than 100000 nM. For the same molecule, the GI50 (HT29 [6]; HT29, Colon Cancer, read-out: GI50) was 15.4 µM, the activity at 10 µM (SN12C; 10 μM, one-dose) was 10.6% and the GI50 (PC-3 [7]; PC-3, Prostate Cancer, read-out: GI50) was 16.4 µM. For the same molecule, the GI50 (TK-10; TK-10, Renal Cancer, read-out: GI50) was 21.2 µM, the activity at 10 µM (SF-539; SF-539, 10 μM, one-dose, read-out: Growth percent) was 16% and the GI50 (NCI/ADR-RES; Ovarian Cancer, read-out: GI50) was greater than 100 µM. It also gave an activity at 10 µM (U251 [8]; U-251, U251, 10 μM, one-dose, read-out: Growth percent) of 13%, an activity at 10 µM (NCI-H226; NCI-H226, 10 μM, one-dose, read-out: Growth percent) of 38% and an activity at 10 µM (MALME-3M; MALME-3M, 10 μM, one-dose) of -55.9%. It also gave a GI50 (UACC-62 [9]; UACC-62, Melanoma, read-out: GI50) of 11.3 µM, an activity at 10 µM (ACHN; 10 μM, one-dose) of 103% and an activity at 10 µM (SK-OV-3 [10]; SK-OV-3, 10 μM, one-dose, read-out: Growth percent) of 41.4%. The activity at 10 µM (PC-3 [11]; PC-3, 10 μM, one-dose, read-out: Growth percent) was 15.7%, the activity at 10 µM (MOLT-4; MOLT-4, 10 μM, one-dose, read-out: Growth percent) was 29.1% and the activity at 10 µM (RPMI-8226; RPMI-8226, 10 μM, one-dose, read-out: Growth percent) was 4.14%. For the same molecule, the activity at 10 µM (OVCAR-8; OVCAR-8, 10 μM, one-dose, read-out: Growth percent) was 20%, the GI50 (HOP-92 [12]; HOP-92, Non-small Cell Lung Cancer, read-out: GI50) was 6.32 µM and the activity at 10 µM (SK-MEL-2; SK-MEL-2, 10 μM, one-dose, read-out: Growth percent) was -54%. The GI50 (K-562 [13]; K-562, Leukemia, read-out: GI50) was 11.3 µM, the activity at 10 µM (UACC-62 [14]; UACC-62, 10 μM, one-dose, read-out: Growth percent) was -69.6% and the GI50 (HOP-62; HOP-62, Non-small Cell Lung Cancer, read-out: GI50) was 25.5 µM. It also gave a GI50 (HL-60(TB); HL-60, HL-60(TB), Leukemia, read-out: GI50) of 2110 nM, a GI50 (OVCAR-4; OVCAR-4, Ovarian Cancer, read-out: GI50) of 25.1 µM and a GI50 (Renal Cancer panel; mean over Renal Cancer panel) of 56.7 µM. For the same molecule, the activity at 10 µM (SK-MEL-28; SK-MEL-28, 10 μM, one-dose, read-out: Growth percent) was -54.9%, the GI50 (COLO 205; COLO 205, COLO 205, Colon Cancer, read-out: GI50) was 4630 nM and the activity at 10 µM (DU-145; DU-145, 10 μM, one-dose, read-out: Growth percent) was 36.4%. For the same molecule, the activity at 10 µM (HT29 [15]; HT-29, HT29, 10 μM, one-dose, read-out: Growth percent) was 15.9%, the activity at 10 µM (K-562 [16]; K562, K-562, 10 μM, one-dose, read-out: Growth percent) was 17.1% and the GI50 (SK-OV-3 [17]; SK-OV-3, Ovarian Cancer, read-out: GI50) was 23.5 µM. It also gave a GI50 (NCI-H460; NCI-H460, Non-small Cell Lung Cancer, read-out: GI50) of 29.4 µM, an activity at 10 µM (SR; 10 μM, one-dose) of 28.8% and an activity at 10 µM (KM12; KM12, 10 μM, one-dose, read-out: Growth percent) of 16%. The GI50 (BT-549; BT-549, Breast Cancer, read-out: GI50) was 12.9 µM and the activity at 10 µM (EKVX [18]; 10 μM, one-dose) was 53%.
